Several values for one entry are separate records, joined by “and”; a condition that tells them apart may be missing. Equal entries are not always repeated. Inconclusive results and toxic doses are left out. Rule as the data show it: active = T/C of 150% or more; inactive = T/C below 125%.
System: L1210 leukemia ip in BDF1 mice, survival T/C
Experiment: NCI In Vivo Anticancer Drug Screen. Data for tumor model L1210 Leukemia (intraperitoneal) in B6D2F1 (BDF1) mice
Details: endpoint: mean survival time, higher = longer survival
In short: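 Value reflects the ratio of survival in compound-treated mice to survival in vehicle-treated controls, with both groups carrying the same transplanted tumor.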

[1] = dose: 50.0 mg/kg/injection, schedule: Q01DX001 (ip), vehicle: saline
[2] = dose: 100.0 mg/kg/injection, schedule: Q01DX001 (ip), vehicle: saline
[3] = dose: 100.0 mg/kg/injection, schedule: Q04DX003 (ip), vehicle: saline
[4] = dose: 200.0 mg/kg/injection, schedule: Q04DX003 (ip), vehicle: saline
[5] = dose: 100.0 mg/kg/injection, schedule: Q01DX009 (ip), vehicle: saline with Tween-80
[6] = dose: 100.0 mg/kg/injection, schedule: Q04DX003 (ip), vehicle: saline with Tween-80
[7] = dose: 200.0 mg/kg/injection, schedule: Q01DX009 (ip), vehicle: saline with Tween-80
[8] = dose: 200.0 mg/kg/injection, schedule: Q04DX003 (ip), vehicle: saline with Tween-80
[9] = dose: 200.0 mg/kg/injection, schedule: Q01DX001 (ip), vehicle: saline
[10] = dose: 400.0 mg/kg/injection, schedule: Q01DX001 (ip), vehicle: saline
[11] = dose: 400.0 mg/kg/injection, schedule: Q04DX003 (ip), vehicle: saline with Tween-80

Measured: T/C

C[n+]1ccc(Nc2ccc(NC(=O)c3ccc(Nc4cc[n+](C)c5ccc([N+](=O)[O-])cc45)cc3[N+](=O)[O-])cc2)cc1
active: dose: 200.0 mg/kg/injection, schedule: Q04DX003 (ip), vehicle: suspension in saline 190 % of control and 203 % of control | dose: 400.0 mg/kg/injection, schedule: Q01DX001 (ip), vehicle: suspension in saline 173 % of control and 206 % of control
inactive: dose: 12.5 mg/kg/injection, schedule: Q01DX009 (ip), vehicle: saline 112 % of control | dose: 25.0 mg/kg/injection, schedule: Q01DX001 (ip), vehicle: saline 105 % of control | dose: 25.0 mg/kg/injection, schedule: Q01DX009 (ip), vehicle: saline 117 % of control | dose: 25.0 mg/kg/injection, schedule: Q04DX003 (ip), vehicle: suspension in saline 111 % of control | [1] 98 % of control | dose: 50.0 mg/kg/injection, schedule: Q01DX009 (ip), vehicle: saline 120 % of control | dose: 50.0 mg/kg/injection, schedule: Q04DX003 (ip), vehicle: suspension in saline 116 % of control | [2] 105 % of control | dose: 100.0 mg/kg/injection, schedule: Q01DX001 (ip), vehicle: suspension in saline 114 % of control | [3] 105 % of control and 104 % of control | [4] 120 % of control and 123 % of control | dose: 400.0 mg/kg/injection, schedule: Q04DX003 (ip), vehicle: suspension in saline 90 % of control | dose: 600.0 mg/kg/injection, schedule: Q04DX003 (ip), vehicle: saline 119 % of control | dose: 800.0 mg/kg/injection, schedule: Q04DX002 (ip), vehicle: saline 102 % of control and 108 % of control

Cc1ccc[n+](CC(=O)CCc2ccc(C(=O)C[n+]3cccc(C)c3)cc2)c1
inactive: dose: 0.07 mg/kg/injection, schedule: Q04DX003 (ip), vehicle: saline 94 % of control | dose: 0.14 mg/kg/injection, schedule: Q04DX003 (ip), vehicle: saline 101 % of control

COc1cc2c(c(OC)c1OC)-c1cc3c(cc1[C@@H](OC(C)=O)[C@@H]1COC(=O)[C@H]1C2)OCO3
inactive: dose: 6.22 mg/kg/injection, schedule: Q01DX009 (ip), vehicle: saline + alcohol 89 % of control | dose: 9.33 mg/kg/injection, schedule: Q01DX009 (ip), vehicle: saline + alcohol 94 % of control | dose: 14.0 mg/kg/injection, schedule: Q01DX009 (ip), vehicle: saline + alcohol 107 % of control | dose: 21.0 mg/kg/injection, schedule: Q01DX009 (ip), vehicle: saline + alcohol 105 % of control

Cn1c(C(O)(Cc2ccccn2)Cc2ccccn2)cc2ccccc21
inactive: dose: 100.0 mg/kg/injection, schedule: Q04DX002 (ip), vehicle: saline with Tween-80 90 % of control | dose: 200.0 mg/kg/injection, schedule: Q04DX002 (ip), vehicle: saline with Tween-80 90 % of control | dose: 400.0 mg/kg/injection, schedule: Q04DX002 (ip), vehicle: saline with Tween-80 97 % of control

Nc1ccc(-c2ccc(N)c(Cl)c2)cc1Cl
inactive: [3] 100 % of control | [4] 103 % of control | dose: 400.0 mg/kg/injection, schedule: Q04DX003 (ip), vehicle: saline 91 % of control

COc1cc(/C=N\NC(=O)OC(C)(C)C)cc(OC)c1OC
inactive: dose: 50.0 mg/kg/injection, schedule: Q01DX009 (ip), vehicle: saline with Tween-80 95 % of control | [5] 97 % of control | [6] 87 % of control | [7] 97 % of control | [8] 91 % of control

C=C1CC2(CCC3(CC2)OCCO3)OC1=O
inactive: dose: 100.0 mg/kg/injection, schedule: Q01DX001 (ip), vehicle: saline with Tween-80 95 % of control | dose: 200.0 mg/kg/injection, schedule: Q01DX001 (ip), vehicle: saline with Tween-80 95 % of control | dose: 400.0 mg/kg/injection, schedule: Q01DX001 (ip), vehicle: saline with Tween-80 98 % of control

O=[N+]([O-])c1ccc2nc(=S)[nH]n2c1
inactive: dose: 100.0 mg/kg/injection, schedule: Q01DX001 (ip), vehicle: acetone 97 % of control | dose: 200.0 mg/kg/injection, schedule: Q01DX001 (ip), vehicle: acetone 93 % of control | dose: 400.0 mg/kg/injection, schedule: Q01DX001 (ip), vehicle: acetone 98 % of control

CC(Cc1ccccc1)NC(=O)NCCCl (stereo not drawn)
inactive: dose: 12.5 mg/kg/injection, schedule: Q01DX009 (ip), vehicle: Klucel (hydroxypropylcellulose) (HPC) 101 % of control | dose: 25.0 mg/kg/injection, schedule: Q01DX009 (ip), vehicle: Klucel (hydroxypropylcellulose) (HPC) 101 % of control | dose: 50.0 mg/kg/injection, schedule: Q01DX009 (ip), vehicle: Klucel (hydroxypropylcellulose) (HPC) 90 % of control | dose: 100.0 mg/kg/injection, schedule: Q01DX001 (ip), vehicle: Klucel (hydroxypropylcellulose) (HPC) 92 % of control | dose: 100.0 mg/kg/injection, schedule: Q04DX003 (ip), vehicle: Klucel (hydroxypropylcellulose) (HPC) 106 % of control | dose: 200.0 mg/kg/injection, schedule: Q01DX001 (ip), vehicle: Klucel (hydroxypropylcellulose) (HPC) 90 % of control | dose: 200.0 mg/kg/injection, schedule: Q04DX003 (ip), vehicle: Klucel (hydroxypropylcellulose) (HPC) 117 % of control | dose: 400.0 mg/kg/injection, schedule: Q01DX001 (ip), vehicle: Klucel (hydroxypropylcellulose) (HPC) 94 % of control

CC(C)(CCCOc1ccccc1)NC(=O)c1ccccc1
inactive: [1] 100 % of control | [2] 100 % of control | [9] 103 % of control | [10] 102 % of control

CN(C)c1ccc(/C=C\C=N\NC(=O)CCCC(=O)N/N=C/C=C/c2ccc(N(C)C)cc2)cc1
inactive: [1] 96 % of control | [2] 96 % of control | [9] 96 % of control | [10] 90 % of control

CC(C)CCC[C@@H](C)[C@H]1CC[C@H]2[C@@H]3CCC(=O)[C@](C)(CCC(=O)O)[C@H]3CC[C@]12C
inactive: dose: 50.0 mg/kg/injection, schedule: Q04DX003 (ip), vehicle: alcohol 102 % of control | dose: 100.0 mg/kg/injection, schedule: Q04DX003 (ip), vehicle: alcohol 98 % of control | dose: 200.0 mg/kg/injection, schedule: Q04DX003 (ip), vehicle: alcohol 102 % of control

CC(C)C1=CC2=CCC3C(C)(C#N)CCCC3(C)C2CC1CC#N (stereo not drawn)
inactive: [6] 88 % of control | [11] 92 % of control

CCOC(=O)c1cnc2ccc(OC)cc2c1Cl
inactive: [5] 95 % of control | [6] 107 % of control | [7] 101 % of control | [8] 104 % of control | dose: 400.0 mg/kg/injection, schedule: Q01DX009 (ip), vehicle: saline with Tween-80 97 % of control | [11] 96 % of control

COc1ccc2c(c1)Cc1c-2nc2ccccc2c1Cl
inactive: [1] 101 % of control | [2] 93 % of control | [9] 96 % of control | [10] 100 % of control

CC(C1CCC2CCC3CCCC1C32)C1CCC2CCC3CCCC1C32 (stereo not drawn)
inactive: dose: 100.0 mg/kg/injection, schedule: Q01DX001 (ip), vehicle: other 99 % of control | dose: 200.0 mg/kg/injection, schedule: Q01DX001 (ip), vehicle: other 103 % of control | dose: 400.0 mg/kg/injection, schedule: Q01DX001 (ip), vehicle: other 101 % of control

O=C1c2cc([N+](=O)[O-])ccc2-c2c1cccc2[N+](=O)[O-]
inactive: dose: 18.75 mg/kg/injection, schedule: Q01DX001 (ip), vehicle: Klucel (hydroxypropylcellulose) (HPC) 96 % of control | dose: 37.5 mg/kg/injection, schedule: Q01DX001 (ip), vehicle: Klucel (hydroxypropylcellulose) (HPC) 91 % of control | dose: 75.0 mg/kg/injection, schedule: Q01DX001 (ip), vehicle: Klucel (hydroxypropylcellulose) (HPC) 96 % of control | dose: 150.0 mg/kg/injection, schedule: Q01DX001 (ip), vehicle: Klucel (hydroxypropylcellulose) (HPC) 98 % of control | dose: 300.0 mg/kg/injection, schedule: Q01DX001 (ip), vehicle: Klucel (hydroxypropylcellulose) (HPC) 87 % of control

COC(=O)C1OC(n2cnc3c(N)ncnc32)C2OC(C)(C)OC12 (stereo not drawn)
inactive: dose: 100.0 mg/kg/injection, schedule: Q01DX005 (ip), vehicle: saline 102 % of control | dose: 200.0 mg/kg/injection, schedule: Q01DX005 (ip), vehicle: saline 104 % of control

CSc1ncnc2c1ncn2N1CCCC1
inactive: dose: 75.0 mg/kg/injection, schedule: Q01DX001 (ip), vehicle: other 101 % of control | dose: 150.0 mg/kg/injection, schedule: Q01DX001 (ip), vehicle: other 97 % of control | dose: 300.0 mg/kg/injection, schedule: Q01DX001 (ip), vehicle: other 98 % of control

Reference: PubChem BioAssay AID248 (DTP/NCI, 2004)
